Laboratory results taken from US20080132481A1, “INTERLEUKIN-4 GENE EXPRESSION INHIBITORS” (AVENTIS PHARMACEUTICALS INC., priority 2002, published 2008).
pIC50: −log10 of the molar value.

Legend:
[1] = system: sheep allergic to Ascaris suum; assay: Sheep asthma model (Ascaris suum antigen challenge); type: in vivo
Protocol: Briefly, transpulmonary pressure, pulmonary resistance (RL), specific lung resistance (SRL airway hyperreactivity, airway responsiveness, are determined.
Venous blood samples (˜5 ml) are obtained from a peripheral leg vein or the jugular vein for pharmacokinetic data. Measurement of Airway Mechanics: The unsedated sheep are restrained in a cart in the prone position with their heads immobilized. After topical anesthesia of the nasal passages with 2% lidocaine solution, a balloon catheter is advanced through one nostril into the lower esophagus. The animals are […] with a cuffed endotracheal tube through the other nostril using a flexible fiberoptic bronchoscope as a guide. (The cuff of the endotracheal tube is inflated only for the measurement of airway mechanics and during aerosol challenges to prevent undue discomfort. This procedure has no effect on airway mechanics). Pleural pressure is estimated with the esophageal balloon catheter (filled with one ml of air) which is positioned 5-10 cm from the gastroesophageal junction. In this position the end expiratory pleural pressure ranges between −2 and −5 cm H20. Once the balloon is placed, it is secured so that it remains in position for the duration of the experiment. Lateral pressure in the trachea is measured with a sidehole catheter (inner dimension, 2.5 mm) advanced through and positioned distal to the tip of the endotracheal tube. Transpulmonary pressure, the difference between tracheal and pleural pressure, is measured with a differential pressure transducer catheter system. […] The signals of flow and transpulmonary pressure is recorded on an oscilloscope recorder which is linked to a computer for on-line calculation of RL from transpulmonary pressure, respiratory volume (obtained by digital integration) and flow. […] Immediately after the measurement of RL, thoracic gas volume (Vtg) is measured in a constant volume body plethysmograph to obtain specific lung resistance (SRL=RL·Vtg) in L×cm H20/LPS. […]

[2] = system: Swiss 3T3 fibroblasts; assay: In vitro cytotoxicity assay on contact inhibited 3T3 fibroblasts (MTS); type: cell-based
Protocol: Other toxicity assays may be used.
Any compound killing 3T3 fibroblast cells was omitted from further studies.
Contact inhibited Swiss 3T3 fibroblasts are purchased from ATCC.
All compound dilutions are assayed in triplicate. […] Cells are returned to the incubator for 2 days.
Media is added to blank wells for background calculations.
Note that starting concentration of CsA was 1 μM.

[3] = system: IL-4; assay: Human primary Th2 cells, IL-4 by ELISA; type: cell-based; conditions: for IL-4 (% control) mean: human Th2 cells, anti-CD3/anti-CD28, 48 hr; for pIC50: human primary Th2 cells activated with anti-CD3 and anti-CD28 (Table 5)
Protocol: Briefly, CD4^+CD45RA^+ T cells, isolated from donor peripheral blood mononuclear cells of healthy donors, are educated in the presence of anti-CD3/CD28 antibodies and various growth factors to obtain either a Th1-like or Th2-like phenotypes as determined by the known cytokine profiles of these two cell types.
(§1) Peripheral blood mononuclear cells (PBMC) are prepared from human blood by Ficoll-Hypacque (Pharmacia). The cells are washed two times in Hanks balanced salt solution (HBSS) and counted.
Naïve T cells (CD4^+/CD45RA) are prepared by negative selection method using following antibodies and Dynabeads: anti-CD8, anti-HLA-DR, (where HLA means human leucocyte antigen) anti-CD14, anti-CD16, anti-CD19, anti-CD45RO antibodies (all from R&D Systems, 1-2 μg/ml) are added to the cells, and the cells are kept on ice for 30 min. The cells are washed two times in HBSS, and goat anti-mouse Ig-beads, (bead:target ratio, 5:1) are added. The cells and beads are slowly rotated at 4° C. for 20 min. (following the protocol supplied from Dynal). The supernatant is removed and fresh goat anti-mouse Ig-beads are added to the supernatant, which is slowly rotated at 4° C. for 20 min. The cells are counted and phenotypically characterized by flow cytometric analysis.
Generation of Th1/Th2 cells: Twenty four well plates are coated with 300 μL anti-CD3 Ab (10 μg/ml, in PBS 1-2 h at 37° C. or overnight at 4° C.), and washed two times with PBS. […]/CD45RA^+ cells at a density of 10^6/ml in RPMI, is prepared and added to RPMI medium containing 10% Hyclone serum/glutamine and 1-2 μg/ml anti-CD28 Ab. The cells are split in two aliquots. For Th1 cells: anti-IL-4 Ab (1-2 μg/ml), IFN-γ (1 μg/ml, or 5000 units/ml) are added to the wells. For Th2 cells: IL-4 (100-200 ng/ml), anti-IFN-γ neutralizing Ab (1-2 μg/ml), anti-IL-12 neutralizing Ab (1-2 μg/ml) are added into the wells. The cells are incubated for 2-3 days at 37° C. The cells are transferred to fresh wells and grown in 200 units/ml IL-2 for 2 weeks by feeding them every other day with IL-2 containing medium and splitting the cultures 1:2 or 1:3 as needed. The degree of polarization is determined by intracellular staining of cells with anti-IFN-γ and anti-IL-4 antibodies from Pharmingen, and using flow cytometry from Becton Dickinson (BD), according to manufacturers description. The cells are stimulated with PHA and alloantigens at day 14 and 28 as described below. Eight days after the second allostimulation the cells can be used for compound screening or frozen for future use. For compound testing, large quantities of Th1 and Th2 cells derived from a given donor (NYTh1 and NYTh2) were expanded and frozen as aliquots in liquid nitrogen. The cells are thawed and cultured as and when needed. The thawed cells are stimulated with alloantigen/PHA combination. The cells are used for compound screening after 8-10 days in culture.
Re-stimulation by allogeneic cells: Human PBMCs, to be used as alloantigens, are isolated from freshly drawn blood by Ficoll separation. Cells are resuspended in medium containing 50 μg/ml mitomycin C and incubated for 40 minutes at 37° C. and then washed extensively to remove all of the Mitomycin C. Cells are counted and diluted to a final concentration of 2×10^6/ml in medium containing 10 μg/ml PHA and 200 units/ml IL-2.

[4] = system: IL-13; assay: Human primary Th2 cells, IL-13 by ELISA; type: cell-based; conditions: human primary Th2 cells activated with anti-CD3 and anti-CD28 (Table 5)
Description: (§2) The methods described herein permit polarization of primary human peripheral blood cells into Th1 and Th2 cells and generation of sufficiently large quantities of Th1 and Th2 cells, e.g., billions of cells, to allow drug screening. Briefly, CD4^+CD45RA^+ T cells, isolated from donor peripheral blood mononuclear cells of healthy donors, are educated in the presence of anti-CD3/CD28 antibodies and various growth factors to obtain either a Th1-like or Th2-like phenotypes as determined by the known cytokine profiles of these two cell types. Primary human Th1 cells secreted IFN-γ and IL-2 cytokines while primary human Th2 cells secreted IL-4, IL-5, IL-13 and basal amounts of IFN-γ that are measurable by enzyme linked immuno absorption assay (ELISA).
as §1
(§3) Naïve T cells (CD4^+/CD45RA) are prepared by negative selection method using following antibodies and Dynabeads: anti-CD8, anti-HLA-DR, (where HLA means human leucocyte antigen) anti-CD14, anti-CD16, anti-CD19, anti-CD45RO antibodies (all from R&D Systems, 1-2 μg/ml) are added to the cells, and the cells are kept on ice for 30 min. […] The cells are counted and phenotypically characterized by flow cytometric analysis. […]

[5] = system: IFN-γ; assay: Human primary Th2 cells, IFN-γ by ELISA; type: cell-based; conditions: human primary Th2 cells activated with anti-CD3 and anti-CD28 (Table 5)
Description: as §2, §1, §3

[6] = system: IL-5; assay: Human primary Th2 cells, IL-5 by ELISA; type: cell-based; conditions: human primary Th2 cells activated with anti-CD3 and anti-CD28 (Table 5)
Description: as §2, §1, §3

[7] = system: Human Th2 cells; assay: Human primary Th2 cells, proliferation (MTS viability test); type: cell-based; conditions: human primary Th2 cells activated with anti-CD3 and anti-CD28 (Table 5); read-out: Prolif. IC50
Description: as §2, §1, §3

[8] = system: ovalbumin specific IgE; assay: OVA induced IgE in mice; type: in vivo, mouse; conditions: serum day 15, 10 mg/kg intraperitoneally once a day from day 6 to day 14, vehicle 150.8
Protocol: Table 10 summarizes effects of 3-(4-pyridinylamino)-1H-indole-2-carboxylic acid on OVA induced IgE in mice. Female mice (5-8 week age, Balb/c, Charles River) were used in this study. Ovalbumin (Sigma) was adsorbed to Aluminum Hydroxide Adsorptive Gel, Inter, and injected 10 μg/0.2 ml/mouse intraperitoneally on experimental day 0 and day 7. Dexamethasone (Sigma) and 3-(4-pyridinylamino)-1H-indole-2-carboxylic acid (Example 28) were in 10% HPCD (Hydroxypropyl-β-Cyclodextrin, Aldrich). Dexamethasone (10 mg/kg), 3-(4-pyridinylamino)-1H-indole-2-carboxylic acid (Example 28) (3 and 10 mg/kg) and 10% HPCD (0.2 ml/mouse) are injected into mice intraperitoneally once a day from day 6 to day 14. They were bled at day 15. Serum ovalbumin specific IgE levels were determined by standard ELISA using a goat anti-mouse IgE antibody labeled with alkaline phosphatase. The anti-OVA titers were determined by malting serial dilutions of the test sera and comparing with vehicle control.

[9] = 3 mg/kg aerosol 30 min before antigen challenge, 2 sheep per group (FIG. 3A)

SMILES: O=C(O)c1[nH]c2ccccc2c1Nc1ccncc1 [Example 28, 3-(4-Pyridinylamino)-1H-indole-2-carboxylic acid]
- antigen-induced early bronchial response: acute increase in specific lung resistance (SRL) [1, 9]: did not affect
- antigen-induced late bronchial response (SRL) [1, 9]: blocked the late response
- post challenge airway responsiveness (decrease of PC400 after antigen challenge) ([1]; 3 mg/kg, 2 sheep (FIG. 3B)): prevented this effect
- toxic effects on quiescent 3T3 cells (in words) [2]: no toxic effects
- IL-4 (% control) mean ([3]; 0.01 μM): 102.15 % control
- IL-4 (% control) mean ([3]; 0.03 μM): 65.30 % control
- IL-4 (% control) mean ([3]; 0.1 μM): 59.75 % control
- IL-4 (% control) mean ([3]; 0.3 μM): 45.00 % control
- IL-4 (% control) mean ([3]; 1 μM): 42.55 % control
- IL-4 (% control) mean ([3]; 3 μM): 36.40 % control
- IL-4 (% control) mean ([3]; 10 μM): 30.80 % control

SMILES: O=C(O)c1[nH]c2cc(Cl)ccc2c1NC(=O)C1CCNCC1 [Example 82, 3-((4-Piperidineacyl)amino)-6-chloro-1H-indole-2-carboxylic acid]
- pIC50 [4]: < 5.00
- pIC50 [5]: < 5.00
- pIC50 [6]: < 5.00
- pIC50 [7]: < 5.00
- pIC50 [3]: 6.82

SMILES: C[C@@H]1C[C@H]2[C@@H]3CCC4=CC(=O)C=C[C@]4(C)[C@@]3(F)[C@@H](O)C[C@]2(C)[C@@]1(O)C(=O)CO [Dexamethasone]
- Anti-OVA IgE [8]: 27.4

SMILES: CCOC(=O)c1[nH]c2cc(Cl)cc(Cl)c2c1N(C)C(=O)c1ccccc1 [Example 83, 3-((Benzoyl)methylamino)-4,6-dichloro-1H-indole-2-carboxylic acid ethyl ester]
- pIC50 [4]: < 5.00
- pIC50 [5]: < 5.00
- pIC50 [6]: < 5.00
- pIC50 [7]: < 5.00
- pIC50 [3]: 6.00
